# Values quoted from earlier work as cited in publication PMC11436104 (Toxins, 2024).
# Test system: rat primary astrocytes
# Conditions: cited from earlier work
substance,measurement,value
MC-LF,cytotoxicity in rat primary astrocytes,selective cytotoxicity
